Measurements from patent US8183235B2, “Dihydronaphthalene compound and use thereof” (Tokyo University of Science Educational Foundation …, priority 2007, dated 2012).
Like-named read-outs stand apart in the source and are kept apart here.

Columns and labels:
[1] = tested on: MKN74; experiment: Proliferation inhibition of stomach cancer cells; format: cell-based; details: Homo sapiens, MKN-74
Description: (§1) As a comparison for the inhibition activity, tamoxifen citrate (TAM) was used. In the Table, the concentration units are μM.
(§2) In the same way as in Example 9, the proliferation inhibition activity of naforidaifens A to G was measured with respect to six types of stomach cancer cells (St-4, MKN1, MKN7, MKN28, MKN45, MKN74). In the Table, the concentration units are μM.

[2] = tested on: MKN28; experiment: Proliferation inhibition of stomach cancer cells; format: cell-based; details: Homo sapiens, MKN-28
Description: as §1, §2

[3] = tested on: St-4; experiment: Proliferation inhibition of stomach cancer cells; format: cell-based; details: Homo sapiens
Description: as §1, §2

[4] = tested on: MKN1; experiment: Proliferation inhibition of stomach cancer cells; format: cell-based; details: Homo sapiens, MKN-1
Description: as §1, §2

[5] = tested on: MKN7; experiment: Proliferation inhibition of stomach cancer cells; format: cell-based; details: Homo sapiens, MKN-7
Description: as §1, §2

[6] = tested on: MKN45; experiment: Proliferation inhibition of stomach cancer cells; format: cell-based; details: Homo sapiens, MKN-45
Description: as §1, §2

[7] = target: α-chymotrypsin (Bos taurus, UniProt P00766); experiment: α-Chymotrypsin-like activity inhibition test; format: biochemical
Description: α-Chymotrypsin-Like Activity Inhibition Test
(§3) 1) To 20S proteasome, naforidaifen B adjusted to a concentration of 10 μM was added, and incubated at 30° C. for 10 min.
2) To the above test system, fluorescence labeled α-chymotrypsin including a 20S proteasome segmenting sequence was added, and reacted for 1 hr at 30° C.
(§4) 3) The fluorescent substance (AMC) released by the above reaction was excited with 360 nm light and assayed with 460 nm light.
(§5) 4) A test system to which naforidaifen B was not added was measured in the same way as (1) to (3) above, and the enzyme activity for the case of using naforidaifen B was measured.
(§6) 5) Stepwise diluted solutions containing naforidaifen B were prepared, and after carrying out the same evaluations as in (1) to (4), the 50% inhibition concentration (IC50) was determined.
6) As a positive control of the enzyme activity, the well-known proteasome inhibitor Clasto-Lactacystin β-Lactone (Lactacystin activator) and MGI32 were evaluated with the steps (1) to (5).

[8] = target: 20S proteasome chymotrypsin-like activity (Homo sapiens, UniProt P28074); experiment: Chymotrypsin-like activity inhibition test; format: biochemical; details: for remaining activity at 10 µM: read-out: % Control, Chymotrypsin-like Activity
[9] = tested on: central nervous system cancer cells; experiment: Proliferation inhibition, central nervous system cancer cell panel (summary); format: cell-based; details: in general with respect to various central nervous system cancer cells; read-out: cytotoxic activity (extent of effective concentration)
Source text: as §1

[10] = tested on: HT-29; experiment: Proliferation inhibition of colon cancer cells; format: cell-based; details: Homo sapiens
Description: as §1
(§7) In the same way as in Example 9, the proliferation inhibition activity of naforidaifens A to G was measured with respect to five types of colon cancer cells (HCC2998, KM-12, HT-29, HCT-15, and HCT-116). In the Table, the concentration units are μM.

[11] = tested on: HCT-116; experiment: Proliferation inhibition of colon cancer cells; format: cell-based; details: Homo sapiens
Description: as §1, §7

[12] = tested on: HCC2998; experiment: Proliferation inhibition of colon cancer cells; format: cell-based; details: Homo sapiens, HCC 2998
Description: as §1, §7

[13] = tested on: HCT-15; experiment: Proliferation inhibition of colon cancer cells; format: cell-based; details: Homo sapiens
Description: as §1, §7

[14] = tested on: KM-12; experiment: Proliferation inhibition of colon cancer cells; format: cell-based; details: Homo sapiens, KM12
Description: as §1, §7

[15] = tested on: SK-OV-3; experiment: Proliferation inhibition of ovarian cancer cells; format: cell-based; details: Homo sapiens
Description: as §1
(§8) In the same way as in Example 9, the proliferation inhibition activity of naforidaifens A to G was measured with respect to five types of ovarian cancer cells (OVCAR-3, OVCAR-4, OVCAR-5, OVCAR-8, AND SK-OV-3). In the Table, the concentration units are μM.

[16] = tested on: OVCAR-3; experiment: Proliferation inhibition of ovarian cancer cells; format: cell-based; details: Homo sapiens
Description: as §1, §8

[17] = tested on: OVCAR-8; experiment: Proliferation inhibition of ovarian cancer cells; format: cell-based; details: Homo sapiens
Description: as §1, §8

[18] = tested on: OVCAR-4; experiment: Proliferation inhibition of ovarian cancer cells; format: cell-based; details: Homo sapiens
Description: as §1, §8

[19] = tested on: OVCAR-5; experiment: Proliferation inhibition of ovarian cancer cells; format: cell-based; details: Homo sapiens
Description: as §1, §8

[20] = tested on: Cathepsin B; experiment: Cathepsin-like activity inhibition test; format: biochemical
Description: Cathepsin-Like Activity Inhibition Test
as §3
2) To the above test system, fluorescence labeled cathepsin including a 20S proteasome segmenting sequence was added, and reacted for 1 hr at 30° C.
as §4, §5, §6
6) As a positive control of the enzyme activity, the known proteasome inhibitor Clasto-Lactacystin β-Lactone (Lactacystin activator) and MGI32 were evaluated with the steps (1) to (5).

[21] = target: 20S proteasome (Homo sapiens, UniProt P28072+P28074+Q99436); experiment: Proteasome inhibition activity, overall judgement; format: biochemical; details: for Proteasome selectivity: judgement; for The evaluations (proteasome inhibition activity): overall judgement positive/negative
[22] = target: 20S proteasome caspase-like activity (Homo sapiens, UniProt P28072); experiment: Caspase-like activity inhibition test; format: biochemical; details: for remaining activity at 10 µM: read-out: % Control, Caspase-like Activity
[23] = target: 20S proteasome trypsin-like activity (Homo sapiens, UniProt Q99436); experiment: Trypsin-like activity inhibition test; format: biochemical; details: for remaining activity at 10 µM: read-out: % Control, Trypsin-like Activity
[24] = tested on: SF-295; experiment: Inhibition of propagation of central nervous system cancer cells (sulforhodamin B); format: cell-based; details: Homo sapiens, 48 h; SF-295, two days of cultivation
Source text: as §1

[25] = tested on: SF-539; experiment: as above; format: cell-based; details: Homo sapiens, 48 h; SF-539, two days of cultivation
Source text: as §1

[26] = tested on: U251; experiment: as above; format: cell-based; details: Homo sapiens, U-251, 48 h; U251, two days of cultivation
Source text: as §1

[27] = tested on: SNB-78; experiment: as above; format: cell-based; details: Homo sapiens, 48 h; SNB-78, two days of cultivation
Source text: as §1

[28] = tested on: SF-268; experiment: as above; format: cell-based; details: Homo sapiens, 48 h; SF-268, two days of cultivation
Source text: as §1

[29] = tested on: SNB-75; experiment: as above; format: cell-based; details: Homo sapiens, 48 h; SNB-75, two days of cultivation
Source text: as §1

[30] = tested on: colon cancer cells; experiment: Proliferation inhibition, colon cancer cell panel (summary); format: cell-based; details: all of the five types of colon cancer cell lines; read-out: effective concentration
Description: as §1, §7

[31] = tested on: ovarian cancer cells; experiment: Proliferation inhibition, ovarian cancer cell panel (summary); format: cell-based; details: all of the five types of ovarian cancer cell lines; read-out: effective concentration
Description: as §1, §8

[32] = tested on: stomach cancer cells; experiment: Proliferation inhibition, stomach cancer cell panel (summary); format: cell-based; details: all of the six types of stomach cancer cell lines; read-out: effective concentration
Description: as §1, §2

SMILES | GI50 [1] [nM] | GI50 [2] [nM] | GI50 [3] [nM] | GI50 [4] [nM] | GI50 [5] [nM] | GI50 [6] [nM] | IC50 [8] [nM] | GI50 [10] [nM] | GI50 [11] [nM] | GI50 [12] [nM] | GI50 [13] [nM] | GI50 [14] [nM] | GI50 [15] [nM] | GI50 [16] [nM] | GI50 [17] [nM] | GI50 [18] [nM] | GI50 [19] [nM] | The evaluations (proteasome inhibition activity) [21] | GI50 [24] [nM] | GI50 [25] [nM] | further results
c1ccc(C2=C(c3ccc(OCCN4CCCCC4)cc3)c3ccc(OCCN4CCCCC4)cc3CC2)cc1 [Naforidaifen C, 4-[4-(2-piperidine-1-yl-ethoxy)phenyl]-7-(2-piperidine-1-yl-ethoxy)-3-phenyl-1,2-dihydronaphthalene] | 1200 | 2510 | 1580 | 1660 | 1550 | 2140 | 3200 | 550 | 1170 | 1350 | 1380 | 1820 | 2040 | 1660 | 2400 | 2090 | 1260 | positive | 1740 | 1480 | α-chymotrypsin inhibition [7]: none; remaining activity at 10 µM [8]: 25.9%; IC50 [9]: 1400 to 1900 nM; Cathepsin B inhibition [20]: none; Proteasome selectivity [21]: present; IC50 [22]: 5100 nM; remaining activity at 10 µM [22]: 31.3%; IC50 [23]: > 10000 nM; remaining activity at 10 µM [23]: 196%; GI50 [26]: 1480 nM; GI50 [27]: 1820 nM; GI50 [28]: 1740 nM; GI50 [29]: 1510 nM
c1ccc(C2=C(c3ccc(OCCN4CCCCCC4)cc3)c3ccc(OCCN4CCCCCC4)cc3CC2)cc1 [Naforidaifen F, 4-[4-(2-hexahydro-1H-azepin-1-yl-ethoxy)phenyl]-7-(2-hexahydro-1H-azepin-1-yl-ethoxy)-3-phenyl-1,2-dihydronaphthalene] | 1170 | 1820 | 1580 | 1550 | 1230 | 1580 | 4300 | 501 | 1230 | 1070 | 1230 | 1590 | 1910 | 1410 | 2000 | 1780 | 1320 | positive | 1780 | 1660 | IC50 [30]: 500 to 1500 nM; α-chymotrypsin inhibition [7]: none; IC50 [31]: 1200 to 1900 nM; remaining activity at 10 µM [8]: 34.2%; Cathepsin B inhibition [20]: none; Proteasome selectivity [21]: present; IC50 [22]: 5100 nM; remaining activity at 10 µM [22]: 39.1%; IC50 [32]: 1100 to 1800 nM; IC50 [23]: > 10000 nM; remaining activity at 10 µM [23]: 251%; GI50 [26]: 1480 nM; GI50 [27]: 1700 nM; GI50 [28]: 1700 nM; GI50 [29]: 1740 nM
CN(C)CCCOc1ccc(C2=C(c3ccccc3)CCc3cc(OCCCN(C)C)ccc32)cc1 [Naforidaifen G, 4-[4-(3-dimethylamino-1-yl-propoxy)phenyl]-7-(3-dimethylamino-1-yl-propoxy)-3-phenyl-1,2-dihydronaphthalene] | 1150 | 1620 | 1480 | 1510 | 1320 | 1480 | > 10000 | 490 | 1100 | 1290 | 1290 | 1660 | 1740 | 1510 | 1860 | 1780 | 1290 | negative | 1780 | 1480 | IC50 [31]: 1200 to 1900 nM; remaining activity at 10 µM ([8]; Concentration 10 μM): 105%; IC50 [9]: 1400 to 1900 nM; IC50 [32]: 1100 to 1800 nM; GI50 [26]: 1480 nM; GI50 [27]: 1780 nM; GI50 [28]: 1580 nM; GI50 [29]: 1620 nM
